Patent publication US12194024B2, “Pharmaceutical composition of MDM2 inhibitor and use thereof for preventing and/or treating disease” (ASCENTAGE PHARMA (SUZHOU) CO., LTD., priority 2019, dated 2025)

Legend:
[1] = test system: human MOLM-13 (AML) xenograft tumor; test: Systemic MOLM-13 AML mouse xenograft model; type: in vivo, NOD SCID mice; settings: Compound 2 30 mg/kg q2d 21 days, Azacitidine 1.5 mg/kg qd seven days
Description: The comparison among three or more groups uses one-way ANOVA. If the F value has a significant difference, multiple comparisons should be carried out after the ANOVA analysis. All data analysis uses SPSS 18.0. Prism (the sixth version) is used for graphing. Attune N×T flow cytometer (Thermo Fisher Scientific Inc.) is used for analyzing tumor infiltrating lymphocytes. Data acquisition and analysis use Analyst Software 1.6.3 work station (AB sciex, Ontario, Canada). For MOLM-13 systemic model, the death date of the last mouse is used for analyzing the median total survival and generating the Kaplan-Meier curve. Logarithmic rank test and Bonferroni multiple test are used for comparing the survival curves of different treatment groups.
For systemic AML model, six- to eight-week-old female NOD SCID mice are pretreated with cyclophosphamide (150 mg/kg, intraperitoneally) continuously for two days. Then the MOLM-13 systemic AML xenograft model is established by inoculating 1×10^7 cells into the caudal vein intravenously.
For systemic AML model, the six- to eight-week-old female NOD SCID mice are pretreated with cyclophosphamide (150 mg/kg, intraperitoneally) continuously for two days. Then the MOLM-13 systemic AML xenograft model is established by inoculating 1×10^7 cells into the caudal vein intravenously. Cells grow 3 days, then are randomly divided into groups for treatment of a single drug or drugs in combination using a carrier, compound 2 (50 mg/kg, is taken orally each day for 7 days), and Aza (1.5 mg/kg, intravenous injection each day for 7 days). In the treatment process and after the treatment is completed, the mice are monitored for the occurrence of hind leg paresis (HLP) or the abdominal swelling caused by disease progression, and a body weight loss >20%.
A systemic MOLM-13 mouse xenograft model is established, and the anti-leukemia effect of compound 2 following the administration regimen of 80 mg/kg dosage, orally (po), and once every two days (q2d) is evaluated in the model (corresponding to the number 57 regimen in table 7). The experiment has two groups, and 15 animals in each group, in one group, 5 animals are used for the analysis of the proportion of CD45+ AML cells, and the remaining 10 animals are used for recording the living condition of the mice. 18 days after the cell inoculation, according to the experimental regimen, 5 animals are selected randomly from each group, bone marrow and spleen are collected, the proportion of human CD45+ AML cells in bone marrow and spleen is analyzed using flow cytometry to evaluate the disease burden of animals.
Systemic tumor model is established by inoculating MOLM-13 tumor cells through caudal vein, the administration starts on the third day after the cell inoculation, and the day of the administration is defined as the first day. Compound 2 is administered following 30 mg/kg, q2d regimens for 21 days. Azacitidine is administered following 1.5 mg/kg, qd regimens for seven days (corresponding to the number 81 regimen in table 7). […]

[2] = test system: human OCI-AML-3 AML xenograft tumor; test: Subcutaneous OCI-AML-3 AML mouse xenograft tumor model; type: in vivo, NOD SCID mice; settings: Compound 2 50 mg/kg orally q2d, Azacitidine 2 mg/kg i.v., Decitabine 1 mg/kg i.v.; for Relative tumor volume (RTV, Mean ± SEM): d15, vehicle 16.5 ± 4.1
Experimental: For subcutaneous model, OCI-AML-3 cells (1×10^6) are injected subcutaneously into the right side of the abdomen of 6- to 8-week-old mice. About 10 days after the cell inoculation, the mice are randomly divided into groups based on the primary tumor size achieving about 100-150 mm^3 of average tumor volume.
The tumor diameter is measured twice using a vernier caliper each week. The computational formula of the tumor volume (TV) is: TV=a×b^2/2. In the computational formula, a and b represent the length and width of the tumor measurement respectively. The computational formula of the relative tumor volume (RTV) is: RTV=VtN1. In the computational formula, V1 is the tumor volume when being grouped and administered, and Vt is the tumor volume when being measured at a certain day after the administration.
The tumor remission rate (%) is derived by dividing the number of SD (Stable Disease), PR (Partial response) and CR (Complete response) appearing in the tumor bearing mice after treatment by the total number of mice in the group×100%.
The synergistic analysis uses the following formula (reference can be made to Gould S E et al., Translational value of mouse models in oncology drug development, Nature medicine, 2015 21, 431-439): synergistic factor=((A/C)×(B/C))/(AB/C); A=RTV value of the A drug alone group; B=RTV value of the B drug alone group; C=RTV value of the vehicle control group, AB=RTV value of the AB combined group (Clarke R., Issues in experimental design and endpoint analysis in the study of experimental cytotoxic agents in vivo in breast cancer and other models[J], Breast Cancer Research & Treatment, 1997, 46 (2-3):255-278).
For subcutaneous model, OCI-AML-3 cells (1×10^6) are injected subcutaneously into the right side of the abdomen of 6- to 8-week-old mice. About 10 days after the cell inoculation, the mice are randomly divided into groups based on the primary tumor size achieving about 100-150 mm^3 of average tumor volume. Compound 2 is administered alone or in combination (50 mg/kg, is taken orally, every other day for 15 days) and Aza (2 mg/kg, intravenous injection each day for 7 days) or Dec (1 mg/kg, intravenous injection each day for 7 days). The tumor volume is measured twice using a vernier caliper each week and is represented by following formula in mm^3: V=0.5a×b^2; in the formula, a and b are the long diameter and short diameter of the tumor respectively. […] RTV=VtN1; wherein V1 and Vt are the average tumor volume on the first day (day 1) in the treatment, and the average tumor volume of a certain time point (day t) respectively.
Azacitidine is administered following 2 mg/kg, caudal vein injection, qd×7d, drug withdrawal 7 days, then qd×2 day regimens for seven days (corresponding to the number 68 regimen in table 7).

MOLM-13 cells = test: Expression of proteins in treated MOLM-13 cells; type: cell-based, human; settings: for γ-H2AX expression (DNA damage): MOLM-13 cells
Description: Therefore, we evaluate the protein changes involving these identified signaling pathways. […] DEC and AZA are low methylation drugs inducing low DNA methylation in cells by inhibiting the function of methyltransferase I (DNMT1). Many studies indicate that DNMT1 forms a complex with UHRF1 and HDAC1 proteins in tumor cells, which binds and inhibits the expression of various […] (such as P16INK4A, P14ARF and P21) promoters, and promotes tumor growth. Cytarabine is a pyrimidine nucleoside analogue, which induces DNA damage, further activates ATM/ATR-P53-P21 signal cascades, inhibits DNA synthesis in cells and interferes with cell proliferation.
Based on above evidences, we further detect the regulating effect of treatment with compound 2 in combination with low methylation drugs DEC and AZA or drug Ara-C on P53, demethylation marker protein DNMT1 and common target protein P21, and the expression of apoptosis marker protein, lytic PARP-1. […] RG-7388 is introduced as the comparison of present experiment. […] DNA damage further activates P53 and P21.
B-actin is used for confirming that the loaded proteins are the same. […] Its results represent three independent results.

[3] = MOLM-13, DEC 100 nM, AZA 3 μM, 48 hours

| Compound | Median survival ([1]; vehicle 16 days) [days] | Prolonged survival ([1]; versus vehicle) [days] | T/C value (%) (d15) [2] | Relative tumor volume (RTV, Mean ± SEM) [2] | expression of DNMT1 (MOLM-13 cells; [3]) | γ-H2AX expression (DNA damage) (MOLM-13 cells) | expression of P53 and P21 proteins (MOLM-13 cells; MOLM-13, compound 2 40 nM, RG-7388 40 nM, DEC 100 nM, AZA 3 μM, 48 hours) |
| --- | --- | --- | --- | --- | --- | --- | --- |
| Nc1ncn([C@@H]2O[C@H](CO)[C@@H](O)[C@H]2O)c(=O)n1 [Azacitidine] | 24 | 8 | 56.6 | 9.3 ± 3.2 | almost completely eliminates DNMT1 | increased expression of γ-H2AX |  |
| Nc1ccn([C@@H]2O[C@H](CO)[C@@H](O)[C@@H]2O)c(=O)n1 [Cytarabine] |  |  |  |  |  | increased expression of γ-H2AX | significant up-regulation effect on P21 |
| Nc1ncn([C@H]2C[C@H](O)[C@@H](CO)O2)c(=O)n1 [Decitabine] |  |  | 64.9 | 10.7 ± 1.7 | almost completely eliminates DNMT1 | increased expression of γ-H2AX |  |
